Experimental data reported in article PMC9959130, “Effects of Side Chain and Peptide Bond Modifications on the Targeting Properties of Stabilized Minigastrin Analogs” (Pharmaceuticals, 2023).
Where a SMILES comes first, the peptide text is derived from it. [ ]: non-standard residue; d: D form. The star is where a group is joined. DOTA = O=C(O)CN1CCN(CC(=O)O)CCN(CC(=O)*)CCN(CC(=O)O)CC1; 1Nal = N[C@@H](Cc1cccc2ccccc12)C(=O)O; NMeNle = CCCC[C@H](NC)C(=O)O

How the values were obtained:
[1] = Metabolic studies in BALB/c mice (intact radiopeptide by radio-HPLC); format: in vivo; details: i.v., 2 nmol, 10 min p.i., two animals per peptide
Protocol: All animal experiments were approved by the Austrian Ministry of Science (BMWF-66.011/0075- WF/V/3b/2016) and performed in accordance with the Austrian Animal Protection Act. Metabolic studies characterizing the stability of selected radioligands against enzymatic degradation were carried out in 7 to 8 week old female BALB/c mice (Charles River, Sulzfeld, Germany). The mice (two animals for each peptide) were intravenously injected into a lateral tail vein with 5–10 MBq of the ^111In-labeled peptide derivatives, corresponding to 2 nmol total peptide. At the time point of 10 min p.i. the animals were euthanatized by cervical dislocation. A sample of urine and blood was immediately collected. Liver and kidneys were dissected, mixed with 20 mM HEPES buffer pH 7.3 (1:1, w/v) and homogenized using an Ultra-Turrax T8 homogenizer (IKA-Werke, Staufen, Germany) for 1 min. All samples taken were analyzed by analytical HPLC using the low-sensitivity loop for urine and the high-sensitivity loop for blood, liver and kidney. Before injection into the HPLC system, all samples except urine were treated with ACN and diluted with water as described for stability studies in human serum. The percentage of intact radiopeptide in the analyzed samples was calculated by integration of the different peaks found in the radiochromatogram using Chromeleon Dionex Software (Version 7.2.9.11323).

[2] = system: A431-CCK2R and A431-mock xenografts; assay: Biodistribution in BALB/c nude mice bearing A431-CCK2R/A431-mock xenografts; format: in vivo; details: xenografted BALB/c nude mice, i.v., ~20 pmol, 4 h p.i. (indium-111 or lutetium-177), mean ± SD n = 4
Procedure, shortened: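 Female athymic BALB/c nude mice carrying subcutaneous A431-CCK2R and A431-mock tumors (~0.25 g) received ~20 pmol radiopeptide i.v. (150–200 kBq; ~0.5 MBq for gallium-68/lutetium-177 studies), n = 4. Tissues γ-counted at 1 h (gallium-68) or 4 h p.i. (indium-111/lutetium-177); expressed as % IA/g and tumor-to-organ ratios.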

CCCC[C@@H](C(=O)N[C@@H](CC(=O)O)C(=O)N[C@@H](Cc1cccc2ccccc12)C(N)=O)N(C)C(=O)[C@H](Cc1c[nH]c2ccccc12)NC(=O)CNC(=O)[C@H](Cc1ccc(O)cc1)NC(=O)[C@H](C)NC(=O)[C@@H](CCCCN)NC(=O)CN1CCN(CC(=O)O)CCN(CC(=O)O)CCN(CC(=O)O)CC1 [[^111In]In-DOTA-[DLys^1]MGS5] [metal not drawn] ({DOTA}-[dK]AYGW[NMeNle]D[1Nal]-NH2)
Intact radiopeptide in kidney ([1]; kidney homogenate): 20.6 ± 3.8% | Intact radiopeptide in liver ([1]; liver homogenate): 82.5 ± 2.4% | Intact radiopeptide in blood [1]: 93.9 ± 1.2% | Intact radiopeptide in urine [1]: 5.8 ± 0.2% | Uptake in kidneys [2]: 20.67 ± 4.37 %IA/g
